Results as given in patent US20150004237A1, “CELLULOSE DERIVATIVES FOR INHIBITING CRYSTALLIZATION OF POORLY WATER-SOLUBLE DRUGS” (Virginia Tech Intellectual Properties, Inc., priority 2012, published 2015).
In brackets after ≈: the same amount, converted by molar mass. Several values for one entry are separate records, joined by “and”; a condition that tells them apart may be missing. Equal entries are not always repeated. Where two headings read alike, the source gives them in different places.

Experiments:
[1] = cited from earlier work
[2] = Ellagic acid release profile; type: physicochemical; conditions: pH 6.8 buffer
[3] = Quercetin release profile; type: physicochemical; conditions: pH 6.8 buffer, Que 0.07 mg/mL
Procedure: In the measurement of drug release profiles, maximum Que concentration was fixed at 0.07 mg/mL in pH 6.8 buffer solution. The UV-vis absorption of the solution was measured and plotted vs. time. Release profiles were determined.

[4] = Formation of X-ray amorphous resveratrol-polymer dispersion by rotary evaporation; type: physicochemical; conditions: classification system of Van Eerdenbrugh et al.
Procedure: All mixtures were visually inspected to confirm that the resveratrol and the polymers were fully dissolved, and that the systems formed uniform one-phase solutions. […] The samples were then placed under vacuum for 24 h to remove any residual solvents. The obtained material was subsequently cryomilled in a liquid nitrogen bath for a total milling time of 4 min. Powder X-Ray Diffraction. Immediately after cryomilling, the samples were analyzed using a Shimadzu XRD-6000 (Shimadzu Corporation, Kyoto, Japan) equipped with a Cu-Kα source and set in Bragg-Brentano geometry between 5° and 35° 2θ at 8°/min with a 0.04° step size. Samples were also analyzed over time following the storage treatments listed above. […] Samples where sharp peaks were observed were deemed crystalline, and those samples that lacked sharp peaks were labeled X-ray amorphous. Physical mixtures of select resveratrol-polymer systems were made to provide a fully crystallized reference. The percent crystallized for certain samples was estimated from a calibration curve generated from analysis of the diffraction patterns of the different solid dispersions, spiked with increasing levels of crystalline resveratrol. […] The crystallinity of these calibration samples was measured immediately after preparation.

[5] = Crystal growth rate of celecoxib (seeded desupersaturation); type: physicochemical; conditions: supersaturation ratio of 1.2
physchem = conditions: 37 °C, pH 6.8, aqueous buffer, thermodynamic from solid
[6] = Crystal growth rate of efavirenz (seeded desupersaturation); type: physicochemical; conditions: supersaturation ratio of 1.2
[7] = pH 6.8; cited from earlier work
[8] = cited from earlier work; remark: listed apart in the source
[9] = Dynamic light scattering particle size of ritonavir during de-supersaturation; type: physicochemical; conditions: ritonavir 25 μg/mL
Procedure: Dynamic light scattering (DLS) was used to monitor changes in particle size as a function of time during de-supersaturation experiments. DLS experiments were performed using a Nano-Zetasizer (Nano-ZS) and its software, dispersion technology software (DTS). A 173° backscatter detector was used in order to minimize the signal from large dust particles or other large contaminants. A quartz flow-through cuvette, coupled with a pump was used for continuous sampling. […] Particle size experiments were performed in the absence and presence of pre-dissolved polymers. As an example, ritonavir was used at an initial concentration of 25 μg/mL with a polymer concentration of 50 μg/mL. The buffer solution was allowed to equilibrate at 37° C. prior to addition of solubilized ritonavir. Data collection began after generation of supersaturation. A stir-plate was used to stir the solution at a speed of 400 rpm.

[10] = Nucleation-induction time of ritonavir from supersaturated solution; type: physicochemical; conditions: initial 20 μg/mL, no polymer, pH 6.8, 37° C.
Procedure: The period between the generation of supersaturation and initiation of nucleation was determined by monitoring the absorbance at 280 nm using an ultraviolet/visible spectrometer, fiber optic coupled with a dip probe (SI Photonics® Tucson, Ariz.). Wavelength scans were acquired every 45 seconds. Precipitation was characterized by an increased extinction at 280 nm wavelength. A supersaturated solution of ritonavir was generated by adding 0.4 mL of ritonavir dissolved in methanol at a concentration 4 mg/mL, to 80 mL sodium phosphate buffer, pH 6.8, at 37° C., providing an initial solution concentration of ritonavir of 20 μg/mL. The drug of compositions of the invention can be present in any amount ranging from about 0-100 μg/mL, such as from about 5-10 μg/mL, or from 15-20 μg/mL, or from 25-30 μg/mL, or from 35-50 μg/mL, or from 55-75 μg/mL, or from 80-90 μg/mL. Depending on the drug compound and the types and amounts of polymers used, the most preferred concentration of drug in the compositions ranges from about 5-25 μg/mL. A syringe pump (Harvard Apparatus, Holliston, Mass.) was used to control the rate of addition of organic solution of ritonavir to buffer solution; the flow rate was 0.20 mL/min. […] The ability of the various polymers to affect the nucleation of ritonavir was evaluated using a polymer concentration of 5 μg/mL. […]

[11] = Ritonavir seed crystal size and morphology by SEM; type: physicochemical; conditions: After Crystal Growth (S = 15.4)
Text: Characterization of Seed Crystals. Ritonavir seed crystals were characterized using scanning electron microscopy (SEM), powder X-ray diffraction analysis (PXRD), and differential scanning calorimetry (DSC). SEM was used to determine the size and shape of ritonavir crystals, while PXRD and DSC were used to evaluate the polymorph of the seed crystals. Ritonavir was used as received from the manufacturer, and prior to use, the seeds were sieved to a size below 250 p.m. Seed crystals used for SEM analysis were prepared by dispersing the seeds in water and equilibrating the water-seed crystal suspension for approximately 24 h. A few drops of the suspension were placed on a glass slide and dried overnight in a vacuum oven at room temperature for approximately 24 h. Before SEM imaging, the glass slides were mounted using double-sticky copper tape and sputter-coated with platinum for 60 s. SEM imaging was performed using an FEI NOVA nanoSEM field emission SEM using an Everhart-Thornley (ET) detector and a through-thelens detector (TLD). The following imaging parameters were used: 5 kV accelerating voltage, approximately 4-5 mm working distance, beam spot size of 3, 30 μm aperture, and 100-10,000× magnifications. The SEM images were analyzed using ImageJ, processing and analysis in Java (National Institutes of Health (NIH)). Several representative samples of seed crystals were obtained before and after crystal growth in the absence and presence of predissolved additive. For each sample, a total of 50 seeds were analyzed to ensure a representative sample, and the average aspect ratio of the crystals was estimated from the average length and width of the crystals.
The polymorphic form of the seed crystals after the crystal growth experiment was also confirmed to be Form II by PXRD. The average length, width, and aspect ratio of ritonavir seed crystals before and after the crystal growth experiment in the presence of the CAP Adp 0.85, Pn-IPAAmd, and CAP Adp 0.85/Pn-IPAAmd polymer combination at initial S values of 7.6 and 15.4 are summarized in Table 6.

[12] = Theoretical amorphous solubility with moisture sorption effect; type: physicochemical; conditions: 37° C.
Text: Amorphous solubility can be approximated by estimating the free energy difference between crystalline and amorphous forms using the Hoffman equation: […]
The ratio of amorphous and crystalline solubility (Samorphous/Scrystalline) is then estimated from the free energy difference (ΔGa→σ) calculated from heat of fusion (ΔHf) and melting temperature (Tm) of the crystalline material determined from DSC analysis, as well as the experimentally determined crystalline solubility:
See Murdande, S. B., Pikal, M. J. Shanker, R. M. & Bogner, R. H., “Solubility Advantage of amorphous pharmaceuticals: I. A thermodynamic analysis,” J. Pharm. Sci., 99(3): 1254-1264, (2009) (“Murdande I”) and Murdande, S. B., Pikal, M. J. Shanker, R. M. & Bogner, R. H., “Solubility Advantage of amorphous pharmaceuticals: II. Application of quantitative thermodynamic relationships for prediction of solubility enhancement in structurally diverse insoluble pharmaceuticals,” Pharm. […]
The moisture sorption profile of amorphous ritonavir was determined at 37° C. using a TA Q5000 dynamic vapor sorption analyzer (TA Instruments, New Castle, Del.) equipped with a humidity controlled chamber and an ultrasensitive thermobalance. […] Subsequently, the moisture sorption isotherm was measured by equilibrating the sample under controlled relative humidity (RH) ranging from 5% RH to 95% RH, in 10% RH intervals. […]

[13] = Crystal growth rate of ritonavir (seeded desupersaturation); type: physicochemical
[14] = pH 6.8
[15] = After Crystal Growth (S = 7.6), values from ref 31 / ref 38
[16] = After Crystal Growth (S = 7.6), values from ref 31 / ref 38, listed as RTV
[17] = Before Crystal Growth, values from ref 31

In the case of `C=CC(=O)O` [Acrylic acid], the pKa [1] is given as 4.76.

For `O=c1oc2c(O)c(O)cc3c(=O)oc4c(O)c(O)cc1c4c23` [EA, Ellagic Acid], the “EA release after 24 h” value [2] was 7%, the “time of maximum EA release” value [2] was 2 h and the “maximum EA release” value ([2]; 25° C., EA 0.05 mg/mL) was 11%. The aqueous solubility ([1]; pH 7.4) was 9.3 µg/mL (≈ 30.8 µM).

With `O=c1c(O)c(-c2ccc(O)c(O)c2)oc2cc(O)cc(O)c12` [Que, Quercetin] the “Que dissolution / release after 1 h” value [3] was 0.7%.

In the case of `Oc1ccc(/C=C/c2cc(O)cc(O)c2)cc1` [Resveratrol], the “crystallization tendency during production” value [4] is reported as “rapid crystallizer”.

For `Cc1ccc(-c2cc(C(F)(F)F)nn2-c2ccc(S(N)(=O)=O)cc2)cc1` [celecoxib], the “normalized crystal growth rate of celecoxib” value [5] was 18.20 μg mL^−1 min^−1 m^−2 and the solubility thermodynamic at 48 h (physchem) was 1.5 µg/mL (≈ 3.93 µM).

For `O=C1Nc2ccc(Cl)cc2[C@@](C#CC2CC2)(C(F)(F)F)O1` [efavirenz], the solubility thermodynamic at 48 h (physchem) was 8.2 µg/mL (≈ 26 µM) and the “normalized crystal growth rate of efavirenz” value [6] was 59.32 μg mL^−1 min^−1 m^−2.

For Poly vinylpyrrolidone K 29/32 [PVP], the “Equilibrium solubility of ritonavir in the presence of polymer (Table 7)” value [7] is listed as 1.2 ± 0.05 µg/mL.

For Ritonavir, the aspect ratio [8, 15] is given as 8.8 and 7.7, the crystal morphology [8, 15] is given as “needle-like” and the length [8, 15] is given as 50.4 ± 18.6 μm. For the same compound, the width [8, 15] was 5.7±1.4 μm, the aspect ratio [8, 16] was 8.8 and the width [8, 16] was 5.7 ± 1.4 μm. For the same compound, the aspect ratio [8, 17] was 7.7, the crystal morphology [8, 17] was “needle-like” and the length [8, 17] was 44.4 ± 15.2 μm. The width [8, 17] was 5.8 ± 1.9 μm, the “time particle size was maintained” value ([9]; no polymer) was ~100 min and the “size of ritonavir particles” value ([9]; polymer 50 μg/mL or none, pH 6.8, 37° C., initially formed particles) was 350-450 nm. For the same compound, the “induction time of ritonavir” value [10] was “approximately 119 minutes”, the aspect ratio [11] was 12.1 and the crystal morphology [11] was “needle-like”. For the same compound, the length [11] was 50.9 ± 14.4 μm, the width [11] was 4.2 ± 1.2 μm and the “calculated amorphous solubility with moisture sorption correction” value [12] was 20.6 µg/mL. The “initial bulk crystal growth rate of ritonavir” value ([13]; 100 mM sodium phosphate buffer, initial 10 μg/mL, no polymer, first 2 min) was 1.56 µg/mL/min, the “normalized crystal growth rate of ritonavir” value ([13]; supersaturation ratio of 1.2) was 3.94 μg mL^−1 min^−1 m^−2 and the “Equilibrium solubility of ritonavir, no polymer (Table 7)” value [7] was 1.3 ± 0.10 µg/mL.

For “poly(N-iso-propylacrylamide) [Pn-IPAAmd]”, the “Equilibrium solubility of efavirenz in the presence of polymer” value [14] is listed as 8.7 ± 0.07 µg/mL, the “Solubility of Ritonavir in the presence of polymer” value [14] is listed as 1.3 ± 0.01 µg/mL and the “Equilibrium solubility of ritonavir in the presence of polymer (Table 7)” value [7] is listed as 1.3 ± 0.01 µg/mL.
